Like-named read-outs stand apart in the source and are kept apart here.
Tests used:
[1] = 100% human serum; fourth study; cited from earlier work
[2] = average value across the studies

| Compound | Protein-binding correction factor, 100% HS [1] | Protein-binding correction factor, Average [2] | Protein-binding correction factor, Average (human) |
| --- | --- | --- | --- |
| Cc1c(O)cccc1C(=O)N[C@@H](CSc1ccccc1)[C@H](O)CN1C[C@H]2CCCC[C@H]2C[C@H]1C(=O)NC(C)(C)C [NFV, Nelfinavir] | 90.6 | 46.1 | – |
| O=C1Nc2ccc(Cl)cc2[C@@](C#CC2CC2)(C(F)(F)F)O1 [EFV, Efavirenz] | 25.5 | 18.4 | – |
| CC(C)(C)NC(=O)[C@@H]1C[C@@H]2CCCC[C@@H]2CN1C[C@@H](O)[C@H](Cc1ccccc1)NC(=O)[C@H](CC(N)=O)NC(=O)c1ccc2ccccc2n1 [SQV, Saquinavir] | – | – | 23.4 |
| Cc1ccnc2c1NC(=O)c1cccnc1N2C1CC1 [NVP, Nevirapine] | 1.2 | 1.3 | – |
